Positions count from the first letter of the chain named.
Legend:
[1] = target: T1, TauT F300A mutant (Homo sapiens, UniProt P31641, F300A); assay: MST binding, TauT F300A; details: mean ± s.e.m., n=3
T1 sequence (P31641 1-620 F300A): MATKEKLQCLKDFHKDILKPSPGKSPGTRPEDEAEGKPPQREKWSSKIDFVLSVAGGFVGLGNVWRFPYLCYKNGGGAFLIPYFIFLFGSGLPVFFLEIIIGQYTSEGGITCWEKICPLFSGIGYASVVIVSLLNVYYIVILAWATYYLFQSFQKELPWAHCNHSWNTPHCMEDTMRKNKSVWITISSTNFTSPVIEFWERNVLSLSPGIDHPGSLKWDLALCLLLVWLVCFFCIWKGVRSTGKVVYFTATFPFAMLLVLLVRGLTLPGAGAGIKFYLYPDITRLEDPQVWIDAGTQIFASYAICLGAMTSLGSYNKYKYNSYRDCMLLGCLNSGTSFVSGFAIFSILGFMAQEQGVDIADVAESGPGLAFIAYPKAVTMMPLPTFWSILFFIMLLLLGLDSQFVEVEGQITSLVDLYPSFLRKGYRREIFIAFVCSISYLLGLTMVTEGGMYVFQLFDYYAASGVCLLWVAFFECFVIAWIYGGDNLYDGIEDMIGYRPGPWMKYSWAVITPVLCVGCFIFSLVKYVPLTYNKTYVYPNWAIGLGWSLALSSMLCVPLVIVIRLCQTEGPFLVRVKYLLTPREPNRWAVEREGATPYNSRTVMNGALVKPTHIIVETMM

[2] = target: T2, TauT E406A mutant (Homo sapiens, UniProt P31641, E406A); assay: MST binding, TauT E406A; details: mean ± s.e.m., n=3
T2 sequence (P31641 1-620 E406A): T1 sequence (P31641 1-620 F300A) with A300F, E406A

[3] = target: T3, TauT Y138A mutant (Homo sapiens, UniProt P31641, Y138A); assay: MST binding, TauT Y138A; details: mean ± s.e.m., n=3
T3 sequence (P31641 1-620 Y138A): T1 sequence (P31641 1-620 F300A) with Y138A, A300F

[4] = target: T4, human wild type TauT (TauT^WT) (Homo sapiens, UniProt P31641); assay: [3H]taurine uptake inhibition assay in HEK293T cells overexpressing TauT^WT; type: cell-based; details: result in words
T4 sequence (P31641 1-620): T1 sequence (P31641 1-620 F300A) with A300F

[H]/N=C(/N)NCC(=O)O [GAA, guanidinoacetate]
Kd (MST) [1]: drastic loss of GAA binding affinity | Kd (MST) [2]: only marginally weakened the binding affinity | Kd (MST) [3]: drastic loss of GAA binding affinity | inhibition of the uptake activity of TauT [4]: potent inhibitory effects

NCCCC(=O)O [GABA, γ-aminobutyric acid]
Kd (MST) [1]: complete loss of the binding | Kd (MST) [2]: reduces the binding affinity of GABA slightly | Kd (MST) [3]: complete loss of the binding | inhibition of the uptake activity of TauT [4]: potent inhibitory effects

NCCS(=O)(=O)O [Taurine, taurine]
Kd (MST) [1]: reduced the taurine binding to varying extents | Kd (MST) [2]: reduced the taurine binding to varying extents | Kd (MST) [3]: undetectable binding

Reference: publication PMC12339982 (Nature Communications, 2025)
